Assay: gradient 5% acetonitrile 3 min, to 50% in 2 min, to 85% in 15 min, held 3 min, 100 µL/min
Settings: column: Zorbax Extend-C18 2.1 x 50 mm; eluents: water / acetonitrile, 0.1% formic acid
Outline: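 A Zorbax Extend-C18 column (2.1 × 50 mm, 1.8 μm) run at 100 μL/min with water and acetonitrile, both containing 0.1% formic acid, separated mixtures of ~100 pure standards. The HPLC was coupled to a quadrupole time-of-flight mass spectrometer operated in positive and negative ionization mode, with dead and dwell volumes of 40 μL and 900 μL. Each retention time was taken from a computationally picked adduct peak that was then manually inspected.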

| Compound | RP-LC retention time [s] |
| --- | --- |
| O=C(c1csc(-c2ccc(N3CCOCC3)nc2)n1)N1CCOCC1 | 626 |
| CCOC(=O)c1cc(C2CC2)nc2c1c(=O)n(Cc1ccccc1F)c(=O)n2C | 1140 |
| CC(Oc1ccccc1)c1nc(-c2ccc3c(c2)nnn3CCC(=O)N2CCCC2)no1 (centres undefined) | 899 |
| O=C(NC1CCCC1)C1CCCN(c2nccnc2Sc2ccccc2)C1 (centres undefined) | 1020 |
| COc1ccc(-c2nc(-c3ccc4c(c3)oc(=O)n4C(C)C)no2)c(OC)c1 | 1080 |
| CCCNS(=O)(=O)c1cc2c(cc1C)CCN2C(=O)CC | 818 |
| c1ccc(-c2noc(-c3ccccc3OC3CNC3)n2)cc1 | 679 |
| CCOc1ccc2c(n1)CCN(C(=O)C1(c3ccccc3)CC1)C2 | 952 |
| COc1cccc(CNc2ccc3[nH]c(=O)[nH]c3c2)c1OC | 593 |
| CCCn1ccc2sc(C)c(C(=O)O)c2c1=O | 774 |
| Cc1ccc(C(=O)N2C[C@@H](F)C[C@H]2C(=O)N2CCc3ccccc3C2)s1 | 800 |
| O=C(NCc1ccc(Br)cc1)C1CCCN(c2cnc3nccnc3c2)C1 (centres undefined) | 755 |
| CCc1nn2c(CNS(=O)(=O)c3cccc(C)c3)c(-c3ccccc3)nc2s1 | 973 |
| Cc1cc(C)n(-c2cc(N3CCCC(C(=O)Nc4cccc(C(F)(F)F)c4)C3)ncn2)n1 (centres undefined) | 1060 |
| CCn1cc(S(=O)(=O)N2CCC(n3c(C)cnc3-c3ccccc3)CC2)cn1 | 631 |
| Cc1ccc2nc(C(=O)N3CCN(c4ccccn4)CC3)cn2c1 | 538 |
| FC1(c2nc(Cc3ccccc3)no2)CCN(Cc2ccoc2)CC1 | 693 |
| Cc1cc(N2CCC(NC(=O)Nc3cccc(F)c3C)C2=O)ccc1F (centres undefined) | 904 |
| COc1ccc2[nH]cc(CCNC(=O)CCC3CCCCC3)c2c1 | 874 |
| Cc1cccc(C(=O)Nc2ccc3c(c2)Sc2ncccc2C(=O)N3C(C)C)c1 | 898 |
| COc1ccc(NC(=O)c2cnc(N3CCN(CC(=O)N4CCCC4)CC3)nc2N)cc1 | 586 |
| COc1ccc(-c2cc(N3CCC(NC(=O)c4cccc(OC(F)(F)F)c4)C3)n[nH]2)cc1 (centres undefined) | 828 |
| CCc1cccc(Nc2nc3ccncc3n(Cc3ccccc3)c2=O)c1 | 742 |

| Compound | RP-LC retention time [s] |
| --- | --- |
| Cc1cc2c(cc1S(=O)(=O)N1CCCC1C(=O)Nc1ccc(Cl)cc1F)OC(C)C(=O)N2 (centres undefined) | 884 |
| Cn1ccc2c(cc(C(=O)NCCC3=CCCCC3)n2C)c1=O | 766 |
| CC(NC(=O)C1=C2CCCN2c2ccccc2S1(=O)=O)c1ccccc1 (centres undefined) | 855 |
| CCN1CCN(c2nc3cc(C(=O)OC)ccc3c(=O)n2-c2cc(OC)cc(OC)c2)CC1 | 661 |
| CCCN1CCN(Cc2nc(-c3ccc(N4CCSCC4)nc3)no2)CC1 | 615 |
| O=C([C@@H]1C[C@H](Oc2ccccc2)CN1C1CCOCC1)N1CCc2ccccc21 | 709 |
| CCn1cc(CCN2CCC(C(=O)Nc3ccc(C)cc3)CC2)c2cccnc21 | 644 |
| CCN1CCn2cc(S(=O)(=O)Nc3cc(C)cc(C)c3)cc2C1=O | 729 |
| Cc1c(-c2ccnc(N3CCN(Cc4ccccc4)CC3)n2)cnc2nc(-c3ccc(Cl)cc3)nn12 | 796 |
| CN1C(=O)c2cccn2CC1CNC(=O)c1cccn1C (centres undefined) | 636 |
| Nc1nc(N2CCc3ccccc3C2)ncc1C(=O)NCc1ccccc1 | 737 |
| COc1ccc(Cl)cc1NC(=O)CN1C(=O)NC2(CCCCC2)C1=O | 831 |
| O=C(Cn1cccc1-c1nc(-c2ccc3c(c2)OCO3)no1)NCCC1=CCCCC1 | 1150 |
| O=C(Nc1cccnc1)c1cc(-c2ccnc(F)c2)ccc1OCc1ccccc1 | 884 |
| CN(C)CCNC(=O)C1CCN(c2nc3ccc(-c4cccc(F)c4)nc3s2)CC1 | 691 |
| CCOc1cccc(-c2noc(Cn3ccnc3)n2)c1 | 635 |
| COc1ccc(C(=O)Nc2nc(-c3ccc4c(c3)NC(=O)C(C)O4)cs2)cc1 (centres undefined) | 877 |
| O=C(Nc1ccc2c(c1)OCCO2)c1cc(-c2ccncc2)n[nH]1 | 606 |
| Cc1cc(C)cc(N2CCC(NC(=O)Nc3cccc(C)c3C)C2=O)c1 (centres undefined) | 922 |
| CCn1cc(C(=O)Nc2ccc(Br)cc2F)c(=O)c2ccc(C)nc21 | 1290 |
| CCN(CC)S(=O)(=O)c1cc(-c2nnc(-c3ccc(OC)cc3)o2)ccc1Cl | 1140 |
| COc1ccc(C2(c3nc(-c4cccc(-c5ccnn5C)c4)no3)CC2)cc1 | 1150 |
| CNC(=O)N1C[C@@H](CN(C)C)[C@H](NC(=O)C2(c3ccc(OC)cc3)CC2)C1 | 572 |

| Compound | RP-LC retention time [s] |
| --- | --- |
| CC1CCN(C(=O)C2CCN(c3nc4ccc(-c5ccccc5)nc4s3)CC2)CC1 | 1140 |
| COc1ccc(NS(=O)(=O)c2c(C)nn(-c3ccc(-c4ccc(C)c(C)c4)nn3)c2C)cc1OC | 1050 |
| CCn1ncc(NC(=O)Cc2ccc(Cl)cc2)c(N2CCOCC2)c1=O | 836 |
| Cc1cccc(-c2ncccc2CNC(=O)c2ccco2)c1 | 596 |
| CCOC(=O)c1ccc(NC(=O)N2CC=C(c3cn(CC)c4ncccc34)CC2)cc1 | 606 |
| CC(C)c1nc(C2CN(C(=O)Nc3cc(F)cc(F)c3)C2)n(C)n1 | 717 |
| CC(C)CNC(=O)c1ccc(CN2CCN(Cc3ccccc3)C(=O)C2=O)cc1 | 721 |
| Cc1ccc2c(c1)NC(=O)c1cc(NC(=O)c3ccccc3Br)ccc1O2 | 846 |
| CCOC(=O)C(C)Sc1nnc2n1CCN2c1ccc(OC)cc1 (centres undefined) | 741 |
| O=C(c1ccc(Br)cc1)N1CCN=C1N1CCN(c2ccccc2F)CC1 | 632 |
| CCCC1=Nc2cc(C(=O)N3CCN(c4ccccn4)CC3)ccc2Sc2ccc(C)cc21 | 802 |
| Cc1cc(C)nc(N2CCN(c3cccc(Cl)c3)CC2)n1 | 1060 |
| O=C1NCC/C1=C\c1ccc(C(F)(F)F)cc1 | 718 |
| CSc1cccc(NC(=O)N2CCC(c3nc(C(=O)N4CCCCC4)c(C)o3)CC2)c1 | 828 |
| Cc1c(-c2noc(-c3ccccc3)n2)nnn1-c1ccc(F)cc1 | 1070 |
| COC(=O)c1scc(-c2ccc(C)cc2)c1S(=O)(=O)N1CCN(c2ccccn2)CC1 | 807 |
| Cc1nnc2ccc(NC3CC3)nn12 | 628 |
| O=c1ccc(-c2ccc(F)cc2)nn1CCc1nc(-c2ccc(F)c(Br)c2)no1 | 1120 |
| O=C(NC1CCCC1)c1ccc2ccnc(N3CCN(c4ccc(F)cc4)CC3)c2c1 | 803 |
| CCOC(=O)c1c(N)ssc1=S | 786 |
| O=C(Nc1ccc(Cl)cc1)C1CCN(C(=O)c2ncn3c2COC(c2ccc(F)cc2)C3)CC1 (centres undefined) | 874 |
| COc1ccc(-c2csc(Cc3nc(-c4cccc(Cl)c4)no3)n2)cc1OC | 1160 |
| Cc1c2c(cc3c1[nH]c1ccccc13)C=NCC2 | 630 |

| Compound | RP-LC retention time [s] |
| --- | --- |
| CN1C(=O)COc2ccc(-c3csc(NC(=O)C(C)(C)C)n3)cc21 | 856 |
| CN(C)C(=O)c1cc2c(s1)CCC(C(=O)Nc1ccc3c(c1)OCCO3)C2 (centres undefined) | 764 |
| CCc1ccc(C2=C(C)C(N3CCCN(C(=O)C4CCCC4)CC3)=NS2(=O)=O)cc1 | 946 |
| N#CCCN1CCN(c2cc(C(=O)O)c3cc(NC(=O)c4cccc(Cl)c4)ccc3n2)CC1 | 614 |
| COc1ccc(-c2cc3c4nnc(SCC(=O)Nc5cccc(Br)c5)n4ccn3n2)cc1 | 1320 |
| COc1ccc(-c2nnc(-c3cccc(S(=O)(=O)N4CCOCC4)c3)o2)cc1OC | 813 |
| Cc1ccc(NC(=O)Cc2c(C(=O)O)c(C)cn2C)c(C)c1 | 771 |
| CN(C)C(CNC(=O)c1cc(-c2ccc3c(c2)OCCO3)on1)c1ccc(F)cc1 (centres undefined) | 681 |
| Cc1c(C(=O)NC2CC2)cnn1-c1cc(-c2nc(C(C)(C)C)no2)ccn1 | 668 |
| COC(=O)c1sccc1NC(=O)N1CCCC1c1cccc(C)c1 (centres undefined) | 1120 |
| CCCCNC(=O)c1cnn(-c2ccc(-c3nc(C)no3)cn2)c1C | 853 |
| Cc1ccc(C)c(S(=O)(=O)N2CCC3(CCC(CN4CCN(C)CC4)O3)CC2)c1 (centres undefined) | 638 |
| CCCn1cc(C(=O)NCc2cccc(C)c2)c(S(=O)(=O)N2CCC(C)CC2)n1 | 1130 |
| Cc1noc(-c2cccc(OC3CN(S(=O)(=O)c4c(C)noc4C)C3)c2)n1 | 964 |
| O=C(Cc1csc2nc(-c3ccccc3)cn12)Nc1ccc(Br)cc1F | 883 |
| NS(=O)(=O)c1ccc(CCNC(=O)C(=O)Nc2ccc(Cl)cn2)cc1 | 695 |
| CCOc1cccc(-c2noc(Cn3ncn4nc(-c5ccccc5Cl)cc4c3=O)n2)c1 | 1250 |
| CCOC(=O)c1cccc(NC2=NS(=O)(=O)C(c3ccc(OC)cc3)=C2C)c1 | 965 |
| COc1ccc(OC)c(NC(=O)N2CCN(Cc3nc4cc(C)ccc4o3)CC2)c1 | 721 |
| Cc1cnn(Cc2c(C(=O)N3C[C@@H](C(N)=O)[C@H](c4nc(C)no4)C3)noc2C)c1 | 590 |

Reference: the METLIN SMRT retention time set (Domingo-Almenara et al. 2019)
